Source: patent US9737545B2 (MERCK SHARP & DOHME CORP., priority 2013, dated 2017)

Target: T1, wildtype HIV-1 protease (Human immunodeficiency virus type 1 group M subtype B, UniProt P04585)
T1 construct: preincubated with the HIV-1 protease (wild type) enzyme in assay buffer; made in house; host or cells: Escherichia coli
Assay: Assay for Inhibition of Microbial Expressed HIV Protease (Pepcleav)
Type: biochemical
Protocol: Assay for Inhibition of Microbial Expressed HIV Protease (“Pepcleav”)
Studies of the inhibition of the wildtype HIV-1 protease (which was expressed in Escherichia coli) were carried out with a peptide substrate [Val-Ser-Gln-Asn-(βnaphthyl)Ala-Pro-Ile-Val (SEQ ID NO: 1)]. The inhibitor was first preincubated with the HIV-1 protease (wild type) enzyme in assay buffer (50 mM sodium acetate, pH 5.5, 100 mM NaCl, and 0.1% BSA) for 30 minutes at room temperature. Substrate was added to 400 micromolar in a total volume of 20 microliters containing 20 picomolar HIV-1 protease (final) and the reaction was incubated for 1 hour at 30° C. The reaction was quenched with the addition of formic acid and indinavir to 0.012% and 150 nM final concentrations, respectively. The product formation was determined after separation of product and substrate on a Zorbax Eclipse XDB-C18 column connected to an API 4000 mass spectrometer (Applied Biosystems) with multiple reaction monitoring (transitions were 644.5/428.9 and 615.4/422.2 (M1/M3) for product and indinavir respectively). The extent of inhibition of the reaction was determined from the peak area of the products. Analysis of the products, independently synthesized, provided quantitation standards and confirmation of the product composition.

Row | SMILES | IC50 [nM]
1 | COC(=O)N[C@H](C(=O)Nc1ccccc1CC[C@@H]1CN[C@H](c2nc3c(Cl)cc(C(F)(F)F)cc3[nH]2)CO1)C(c1ccccc1)c1ccccc1 [Example 26, methyl N-[(1S)-1-benzhydryl-2-[[2-[2-[(2R,5R)-5-[4-chloro-6-(trifluoromethyl)-1H-benzimidazol-2-yl]morpholin-2-yl]ethyl]phenyl]amino]-2-oxo-ethyl]carbamate] | 65.6
2 | COC(=O)N[C@H](C(=O)Nc1ccccc1CC[C@@H]1CN[C@H](c2nc3cc(F)c(Cl)cc3[nH]2)CO1)C(c1ccccc1)c1ccccc1 [Example 27, N-(2-{2-[(2R,5R)-5-(6-chloro-5-fluoro-1H-benzimidazol-2-yl)morpholin-2-yl]ethyl}phenyl)-Na-(methoxycarbonyl)-b-phenyl-L-phenylalaninamide] | 0.658
3 | COC(=O)N[C@H](C(=O)Nc1ccccc1CC[C@@H]1CN[C@H](c2nc3c(F)cccc3[nH]2)CO1)C(c1ccccc1)c1ccccc1 [Example 28, N-(2-{2-[(2R,5R)-5-(4-fluoro-1H-benzimidazol-2-yl)morpholin-2-yl]ethyl}phenyl)-Na-(methoxycarbonyl)-b-phenyl-L-phenylalaninamide] | 0.122
4 | COC(=O)N[C@H](C(=O)Nc1cccc(F)c1CC[C@@H]1CN[C@H](c2nc3cc(C)c(C)cc3[nH]2)CO1)C(c1ccccc1)c1ccccc1 [Example 29, N-(2-{2-[(2R,5R)-5-(5,6-dimethyl-1H-benzimidazol-2-yl)morpholin-2-yl]ethyl}-3-fluorophenyl)-Na-(methoxycarbonyl)-b-phenyl-L-phenylalaninamide] | 0.0127
5 | COC(=O)N[C@H](C(=O)Nc1cncc(F)c1CC[C@@H]1CN[C@H](c2nc3cc(C)c(C)cc3[nH]2)CO1)C(c1ccccc1)c1ccccc1 [Example 31, methyl N-[(1S)-1-benzhydryl-2-[[4-[2-[(2R,5R)-5-(5,6-dimethyl-1H-benzimidazol-2-yl)morpholin-2-yl]ethyl]-5-fluoro-3-pyridyl]amino]-2-oxo-ethyl]carbamate] | 0.00965
6 | COC(=O)N[C@H](C(=O)Nc1cnccc1CC[C@@H]1CN[C@H](c2nc3cc(C)c(C)cc3[nH]2)CO1)C(c1ccccc1)c1ccccc1 [Example 32, methyl N-[(1S)-1-benzhydryl-2-[[4-[2-[(2R,5R)-5-(5,6-dimethyl-1H-benzimidazol-2-yl)morpholin-2-yl]ethyl]-3-pyridyl]amino]-2-oxo-ethyl]carbamate] | 0.04
7 | Cc1cc2nc([C@@H]3CO[C@H](CCc4c(F)cncc4NC(=O)C4(Cc5ccccc5Cl)CC4)CN3)[nH]c2cc1C [Example 33] | 4.08
8 | Cc1cc2nc([C@@H]3CO[C@H](CCc4cc[nH]c(=O)c4NC(=O)[C@@H](N)C(c4ccccc4)c4ccccc4)CN3)[nH]c2cc1C [Example 34, N-(4-{2-[(2R,5R)-5-(5,6-dimethyl-1H-benzimidazol-2-yl)morpholin-2-yl]ethyl}-2-oxo-1,2-dihydropyridin-3-yl)-β-phenyl-L-phenylalaninamide] | 0.168
9 | COC(=O)N[C@H](C(=O)Nc1c(CC[C@@H]2CN[C@H](c3nc4cc(C)c(C)cc4[nH]3)CO2)cc[nH]c1=O)C(c1ccccc1)c1ccccc1 [Example 35, methyl N-[(1S)-1-benzhydryl-2-[[4-[2-[(2R,5R)-5-(5,6-dimethyl-1H-benzimidazol-2-yl)morpholin-2-yl]ethyl]-2-oxo-1H-pyridin-3-yl]amino]-2-oxo-ethyl]carbamate] | 0.159
10 | COC(=O)N[C@H](C(=O)Nc1ccccc1CC[C@@H]1CN[C@H](c2nnc(C)[nH]2)CO1)C(c1ccccc1)c1ccccc1 [Example 36, Nα-(methoxycarbonyl)-N-[2-(2-{(2R,5R)-5-[(5-methyl-4H-1,2,4-triazol-3-yl)]morpholin-2-yl}ethyl)phenyl]-β-phenyl-L-phenylalaninamide] | 16.5
11 | COC(=O)N[C@H](C(=O)Nc1ccccc1CC[C@@H]1CN[C@H](C#N)CO1)C(c1ccccc1)c1ccccc1 [Example 37, methyl [(1S)-2-[(2-{2-[(2R,5R)-5-cyanomorpholin-2-yl]ethyl}phenyl)amino]-1-(diphenylmethyl)-2-oxoethyl]carbamate] | 246
12 | COC(=O)N[C@H](C(=O)Nc1ccccc1CC[C@@H]1CN[C@H](c2nnn[nH]2)CO1)C(c1ccccc1)c1ccccc1 [Example 38, Nα-(methoxycarbonyl)-β-phenyl-N-(2-{2-[(2R,5R)-5-(1H-tetrazol-5-yl)morpholin-2-yl]ethyl}phenyl)-L-phenylalaninamide] | 2
13 | COC(=O)N[C@H](C(=O)Nc1ccccc1CC[C@@H]1CN[C@H](c2nnnn2Cc2ccccc2)CO1)C(c1ccccc1)c1ccccc1 [Example 39, methyl [(1S)-2-[(2-{2-[(2R,5R)-5-(1-benzyl-1H-tetrazol-5-yl)morpholin-2-yl]ethyl}phenyl)amino]-1-(diphenylmethyl)-2-oxoethyl]carbamate] | 653
14 | COC(=O)N[C@H](C(=O)Nc1ccccc1CC[C@@H]1CN[C@H](c2ncon2)CO1)C(c1ccccc1)c1ccccc1 [Example 41, methyl {(1S)-1-(diphenylmethyl)-2-[(2-{2-[(2R,5R)-5-(1,2,4-oxadiazol-3-yl)morpholin-2-yl]ethyl}phenyl)amino]-2-oxoethyl}carbamate] | 304
15 | COC(=O)N[C@H](C(=O)Nc1ccccc1CC[C@@H]1CN[C@H](c2ncc[nH]2)CO1)C(c1ccccc1)c1ccccc1 [Example 42] | 2.62
16 | COC(=O)N[C@H](C(=O)Nc1ccccc1CC[C@@H]1CN[C@H](c2ncc(C)[nH]2)CO1)C(c1ccccc1)c1ccccc1 [Example 43, methyl {(1S)-1-(diphenylmethyl)-2-[(2-{2-[(2R,5R)-5-(5-methyl-1H-imidazol-2-yl)morpholin-2-yl]ethyl}phenyl)amino]-2-oxoethyl}carbamate] | 1.02
17 | COC(=O)N[C@H](C(=O)Nc1ccccc1CC[C@@H]1CN[C@H](c2ncc(Cc3ccccc3)[nH]2)CO1)C(c1ccccc1)c1ccccc1 [Example 44, N-(2-{2-[(2R,5R)-5-(5-benzyl-1H-imidazol-2-yl)morpholin-2-yl]ethyl}phenyl)-Nα-(methoxycarbonyl)-β-phenyl-L-phenylalaninamide] | 0.568
18 | COC(=O)N[C@H](C(=O)Nc1ccccc1CC[C@@H]1CN[C@H](c2ncc(-c3ccccc3)[nH]2)CO1)C(c1ccccc1)c1ccccc1 [Example 45, Nα-(methoxycarbonyl)-β-phenyl-N-(2-{2-[(2R,5R)-5-(5-phenyl-1H-imidazol-2-yl)morpholin-2-yl]ethyl}phenyl)-L-phenylalaninamide] | 0.041
19 | COC(=O)N[C@H](C(=O)Nc1ccccc1CC[C@@H]1CN[C@H](c2cnc(-c3ccccc3)[nH]2)CO1)C(c1ccccc1)c1ccccc1 [Example 46, Nα-(methoxycarbonyl)-β-phenyl-N-(2-{2-[(2R,5R)-5-(2-phenyl-1H-imidazol-5-yl)morpholin-2-yl]ethyl}phenyl)-L-phenylalaninamide] | 841
20 | COC(=O)N[C@H](C(=O)Nc1ccccc1CC[C@@H]1CN[C@H](c2cnc(C)[nH]2)CO1)C(c1ccccc1)c1ccccc1 [Example 47, Nα-(methoxycarbonyl)-N-(2-{2-[(2R,5R)-5-(2-methyl-1H-imidazol-5-yl)morpholin-2-yl]ethyl}phenyl)-β-phenyl-L-phenylalaninamide] | 378
21 | COC(=O)N[C@H](C(=O)Nc1ccccc1CC[C@@H]1CN[C@H](c2nc(C)c(C)[nH]2)CO1)C(c1ccccc1)c1ccccc1 [Example 48, N-(2-{2-[(2R,5R)-5-(4,5-dimethyl-1H-imidazol-2-yl)morpholin-2-yl]ethyl}phenyl)-Nα-(methoxycarbonyl)-β-phenyl-L-phenylalaninamide] | 1.81
22 | C#C[C@@H]1CO[C@H](CCc2ccccc2NC(=O)[C@@H](NC(=O)OC)C(c2ccccc2)c2ccccc2)CN1 [Example 49, N-(2-{2-[(2R,5R)-5-ethynylmorpholin-2-yl]ethyl}phenyl)-Nα-(methoxycarbonyl)-β-phenyl-L-phenylalaninamide] | 824
23 | COC(=O)N[C@H](C(=O)Nc1ccccc1CC[C@@H]1CN[C@H](c2cn(Cc3ccccc3)nn2)CO1)C(c1ccccc1)c1ccccc1 [Example 50, N-(2-{2-[(2R,5R)-5-(1-benzyl-1H-1,2,3-triazol-4-yl)morpholin-2-yl]ethyl}phenyl)-Nα-(methoxycarbonyl)-β-phenyl-L-phenylalaninamide] | 36.3
24 | COC(=O)N[C@H](C(=O)Nc1ccccc1CC[C@@H]1CN[C@H](c2cnnn2Cc2ccccc2)CO1)C(c1ccccc1)c1ccccc1 [Example 51, N-(2-{2-[(2R,5R)-5-(1-benzyl-1H-1,2,3-triazol-5-yl)morpholin-2-yl]ethyl}phenyl)-Nα-(methoxycarbonyl)-β-phenyl-L-phenylalaninamide] | 576
25 | COC(=O)N[C@H](C(=O)Nc1ccccc1CC[C@@H]1CN[C@H](c2cnn[nH]2)CO1)C(c1ccccc1)c1ccccc1 [Example 52, Nα-(methoxycarbonyl)-β-phenyl-N-(2-{2-[(2R,5R)-5-(1H-1,2,3-triazol-5-yl)morpholin-2-yl]ethyl}phenyl)-L-phenylalaninamide] | 250
26 | COC(=O)N[C@H](C(=O)Nc1ccccc1CC[C@@H]1CN[C@H](c2cc3ccccc3[nH]2)CO1)C(c1ccccc1)c1ccccc1 [Example 53, N-(2-{2-[(2R,5R)-5-(1H-indol-2-yl)morpholin-2-yl]ethyl}phenyl)-Nα-(methoxycarbonyl)-β-phenyl-L-phenylalaninamide] | 44.4
